Assay results reported in ChEMBL document CHEMBL4387706, “Discovery of Novel Spiroindoline Derivatives as Selective Tankyrase Inhibitors” (J Med Chem, 2019).
Converted amounts (≈) assume the structure as drawn. The source made the active and inactive calls. The calls are words filed in the database; no cut-off is given here.

Assays:
[1] = Permeability of the compound by PAMPA; type: ADME; conditions: read-out: permeability
[2] = Protein binding in human serum assessed as unbound fraction at 1 uM measured after 24 hrs by LC-MS/MS analysis; type: ADME, cell-free
[3] = Protein binding in mouse serum assessed as unbound fraction at 1 uM measured after 24 hrs by LC-MS/MS analysis; type: ADME, cell-free
[4] = Initial plasma concentration in Sprague-Dawley rat at 1 mg/kg, iv; type: ADME, organism-based
[5] = Half life in Sprague-Dawley rat at 1 mg/kg, iv; type: ADME, organism-based; conditions: in vivo
[6] = AUC (infinity) in Sprague-Dawley rat at 1 mg/kg, iv; type: ADME, organism-based; design: dose 1 mg/kg, route intravenous, time infinity; conditions: in vivo
[7] = Total clearance in Sprague-Dawley rat at 1 mg/kg, iv; type: ADME, organism-based; conditions: in vivo
[8] = Volume of distribution at steady state in Sprague-Dawley rat at 1 mg/kg, iv; type: ADME, organism-based; conditions: in vivo, read-out: Vdss
[9] = Cmax in Sprague-Dawley rat at 3 mg/kg, po; type: ADME, organism-based; design: dose 3 mg/kg, route oral; conditions: in vivo
[10] = Tmax in Sprague-Dawley rat at 3 mg/kg, po; type: ADME, organism-based; conditions: in vivo
[11] = AUC (infinity) in Sprague-Dawley rat at 3 mg/kg, po; type: ADME, organism-based; design: dose 3 mg/kg, time infinity, route oral; conditions: in vivo
[12] = Oral bioavailability in Sprague-Dawley rat at 3 mg/kg; type: ADME, organism-based; conditions: in vivo
[13] = biological target: Poly [ADP-ribose] polymerase 2 (Homo sapiens, UniProt Q9UGN5); assay: Inhibition of human recombinant N-terminal GST-tagged PARP2 (2 to 583 residues) expressed in baculovirus infected Sf9 cells assessed as reduction in auto-PARylation using histone as substrate measured after 45 mins in presence of biotinylated-NAD+ by ELISA
Poly [ADP-ribose] polymerase 2, sequence (Q9UGN5 whole entry, the tested form may be a part): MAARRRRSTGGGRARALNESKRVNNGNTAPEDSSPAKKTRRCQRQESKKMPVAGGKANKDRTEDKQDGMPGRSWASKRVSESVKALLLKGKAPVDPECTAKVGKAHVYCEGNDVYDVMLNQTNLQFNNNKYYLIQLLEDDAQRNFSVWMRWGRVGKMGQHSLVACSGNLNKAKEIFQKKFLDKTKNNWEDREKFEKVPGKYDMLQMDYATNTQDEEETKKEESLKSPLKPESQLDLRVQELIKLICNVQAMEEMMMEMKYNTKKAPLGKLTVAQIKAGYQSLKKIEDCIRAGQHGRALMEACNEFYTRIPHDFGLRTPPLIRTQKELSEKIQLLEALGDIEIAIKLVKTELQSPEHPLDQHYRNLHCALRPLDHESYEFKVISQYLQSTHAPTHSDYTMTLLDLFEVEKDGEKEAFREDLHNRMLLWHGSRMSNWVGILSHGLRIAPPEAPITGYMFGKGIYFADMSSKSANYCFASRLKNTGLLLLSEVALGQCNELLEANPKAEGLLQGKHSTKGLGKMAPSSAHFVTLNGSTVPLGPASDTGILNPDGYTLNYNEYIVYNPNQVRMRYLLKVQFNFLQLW

[14] = biological target: T1, Protein mono-ADP-ribosyltransferase PARP10 (Homo sapiens, UniProt Q53GL7); assay: Inhibition of human recombinant N-terminal TEV-cleavgae site-fused-FLAG/Polyhis-tagged PARP10 […] expressed in Escherichia coli assessed as reduction in auto-PARylation using histone as substrate measured after 45 mins in presence of biotinylated-NAD+ by ELISA
T1 sequence (Q53GL7 whole entry): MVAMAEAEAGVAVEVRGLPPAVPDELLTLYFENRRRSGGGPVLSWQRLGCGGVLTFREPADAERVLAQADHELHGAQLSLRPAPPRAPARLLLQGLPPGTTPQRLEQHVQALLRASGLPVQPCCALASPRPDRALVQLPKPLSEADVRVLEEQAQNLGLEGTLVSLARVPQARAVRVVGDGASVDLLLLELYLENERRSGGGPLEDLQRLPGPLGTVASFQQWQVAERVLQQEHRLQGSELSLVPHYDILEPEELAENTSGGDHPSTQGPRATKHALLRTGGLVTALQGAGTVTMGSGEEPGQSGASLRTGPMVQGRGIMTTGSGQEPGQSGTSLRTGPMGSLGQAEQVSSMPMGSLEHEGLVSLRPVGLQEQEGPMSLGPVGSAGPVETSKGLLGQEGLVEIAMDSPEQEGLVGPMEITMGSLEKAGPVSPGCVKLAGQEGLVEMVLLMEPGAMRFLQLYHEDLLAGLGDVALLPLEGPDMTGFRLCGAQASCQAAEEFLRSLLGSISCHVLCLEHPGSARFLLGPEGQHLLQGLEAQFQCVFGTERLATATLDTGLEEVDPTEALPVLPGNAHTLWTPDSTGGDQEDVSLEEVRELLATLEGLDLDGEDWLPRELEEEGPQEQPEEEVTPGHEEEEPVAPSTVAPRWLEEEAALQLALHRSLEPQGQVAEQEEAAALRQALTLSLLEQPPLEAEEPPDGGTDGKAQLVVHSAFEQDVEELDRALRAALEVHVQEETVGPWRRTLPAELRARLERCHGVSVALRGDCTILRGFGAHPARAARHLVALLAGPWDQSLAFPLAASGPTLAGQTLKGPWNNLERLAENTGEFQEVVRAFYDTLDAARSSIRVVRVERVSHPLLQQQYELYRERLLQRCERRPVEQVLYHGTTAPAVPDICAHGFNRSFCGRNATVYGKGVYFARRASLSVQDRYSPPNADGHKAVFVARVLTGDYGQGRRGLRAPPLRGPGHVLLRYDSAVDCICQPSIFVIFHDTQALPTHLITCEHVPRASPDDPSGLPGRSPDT

[15] = biological target: Poly [ADP-ribose] polymerase 1 (Homo sapiens, UniProt P09874)
Poly [ADP-ribose] polymerase 1, sequence (P09874 whole entry): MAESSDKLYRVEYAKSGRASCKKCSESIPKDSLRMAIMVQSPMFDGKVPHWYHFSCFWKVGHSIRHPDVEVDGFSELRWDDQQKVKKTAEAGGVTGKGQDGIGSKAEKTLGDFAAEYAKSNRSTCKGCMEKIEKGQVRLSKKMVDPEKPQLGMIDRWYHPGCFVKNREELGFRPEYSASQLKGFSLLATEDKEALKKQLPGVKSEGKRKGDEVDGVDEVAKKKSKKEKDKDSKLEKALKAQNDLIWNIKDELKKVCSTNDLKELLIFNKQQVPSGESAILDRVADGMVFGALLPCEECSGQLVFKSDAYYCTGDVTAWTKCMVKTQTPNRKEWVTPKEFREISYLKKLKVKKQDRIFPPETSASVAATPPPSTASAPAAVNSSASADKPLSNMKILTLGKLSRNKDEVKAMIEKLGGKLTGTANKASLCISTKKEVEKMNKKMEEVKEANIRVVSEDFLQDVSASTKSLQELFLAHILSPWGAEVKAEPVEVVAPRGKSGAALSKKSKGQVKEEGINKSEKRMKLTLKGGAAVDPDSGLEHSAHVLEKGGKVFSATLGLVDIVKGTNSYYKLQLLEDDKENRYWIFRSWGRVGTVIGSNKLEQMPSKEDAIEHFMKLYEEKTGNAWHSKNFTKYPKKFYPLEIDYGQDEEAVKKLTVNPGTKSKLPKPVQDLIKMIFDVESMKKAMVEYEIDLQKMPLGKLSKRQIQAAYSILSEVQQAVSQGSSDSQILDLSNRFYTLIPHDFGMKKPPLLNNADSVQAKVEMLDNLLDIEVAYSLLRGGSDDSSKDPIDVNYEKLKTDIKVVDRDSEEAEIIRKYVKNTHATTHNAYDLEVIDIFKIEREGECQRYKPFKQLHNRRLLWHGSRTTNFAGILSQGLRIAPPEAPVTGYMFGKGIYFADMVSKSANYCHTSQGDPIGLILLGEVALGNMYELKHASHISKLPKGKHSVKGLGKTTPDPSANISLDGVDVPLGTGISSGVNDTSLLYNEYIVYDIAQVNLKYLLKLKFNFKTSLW
Description: Inhibition of recombinant human PARP1 expressed in Escherichia coli assessed as reduction in auto-PARylation using histone as substrate measured after 45 mins in presence of biotinylated-NAD+ by ELISA

COLO 320DM [16] = assay: cells; conditions: Homo sapiens, 96 h
Description: Antiproliferative activity against human COLO320DM cells assessed as inhibition of cell growth measured after 4 days by CellTiter-Glo assay

physchem = conditions: phosphate buffer, pH 7.4
in vitro [17] = conditions: human, liver microsomes
Description: Stability in human liver microsomes assessed as parent compound remaining at 1 uM measured after 30 mins in presence of NADPH by LC-MS/MS analysis

in vitro [18] = conditions: mouse, liver microsomes
Description: Stability in mouse liver microsomes assessed as parent compound remaining at 1 uM measured after 30 mins in presence of NADPH by LC-MS/MS analysis

Homo sapiens = species on record: Homo sapiens; assay: Effect on hippo signaling protein in human COLO320DM cells assessed as change in AMOTL2 expression at 0.033 to 1 uM measured after 48 hrs by RT-PCR analysis; type: cell-based
COLO 320DM [19] = assay: Antitumor activity against human COLO320DM cells xenografted in mouse assessed as tumor growth inhibition at 300 mg/kg, ip administered twice daily for 11 days relative to control; type: functional; conditions: 264 h, read-out: TGI
[20] = biological target: Adenosine receptor A2a (Homo sapiens) (UniProt P29274); assay: Displacement of [3H]CGS-21680 from full-length recombinant human A2A receptor expressed in HEK293 cells at 10 uM measured after 90 mins by scintillation counting method relative to control; type: cell-based
Adenosine receptor A2a (Homo sapiens), sequence (P29274 whole entry): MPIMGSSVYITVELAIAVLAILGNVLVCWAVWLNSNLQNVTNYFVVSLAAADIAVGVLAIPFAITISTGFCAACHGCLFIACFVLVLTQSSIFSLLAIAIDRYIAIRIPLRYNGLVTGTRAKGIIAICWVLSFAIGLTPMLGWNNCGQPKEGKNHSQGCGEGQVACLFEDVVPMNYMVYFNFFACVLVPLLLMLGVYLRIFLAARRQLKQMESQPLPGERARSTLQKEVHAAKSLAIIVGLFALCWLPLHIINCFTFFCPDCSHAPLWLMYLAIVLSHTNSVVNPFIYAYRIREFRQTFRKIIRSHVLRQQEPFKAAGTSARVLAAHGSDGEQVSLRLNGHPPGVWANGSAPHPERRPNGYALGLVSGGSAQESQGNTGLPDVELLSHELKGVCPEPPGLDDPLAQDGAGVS

[21] = biological target: Androgen receptor (Homo sapiens) (UniProt P10275); assay: Displacement of [3H]Methyltrienolone from human LNCAP cells-derived androgen receptor at 10 uM measured after 20 hrs by scintillation counting method relative to control; type: cell-based
Androgen receptor (Homo sapiens), sequence (P10275 whole entry): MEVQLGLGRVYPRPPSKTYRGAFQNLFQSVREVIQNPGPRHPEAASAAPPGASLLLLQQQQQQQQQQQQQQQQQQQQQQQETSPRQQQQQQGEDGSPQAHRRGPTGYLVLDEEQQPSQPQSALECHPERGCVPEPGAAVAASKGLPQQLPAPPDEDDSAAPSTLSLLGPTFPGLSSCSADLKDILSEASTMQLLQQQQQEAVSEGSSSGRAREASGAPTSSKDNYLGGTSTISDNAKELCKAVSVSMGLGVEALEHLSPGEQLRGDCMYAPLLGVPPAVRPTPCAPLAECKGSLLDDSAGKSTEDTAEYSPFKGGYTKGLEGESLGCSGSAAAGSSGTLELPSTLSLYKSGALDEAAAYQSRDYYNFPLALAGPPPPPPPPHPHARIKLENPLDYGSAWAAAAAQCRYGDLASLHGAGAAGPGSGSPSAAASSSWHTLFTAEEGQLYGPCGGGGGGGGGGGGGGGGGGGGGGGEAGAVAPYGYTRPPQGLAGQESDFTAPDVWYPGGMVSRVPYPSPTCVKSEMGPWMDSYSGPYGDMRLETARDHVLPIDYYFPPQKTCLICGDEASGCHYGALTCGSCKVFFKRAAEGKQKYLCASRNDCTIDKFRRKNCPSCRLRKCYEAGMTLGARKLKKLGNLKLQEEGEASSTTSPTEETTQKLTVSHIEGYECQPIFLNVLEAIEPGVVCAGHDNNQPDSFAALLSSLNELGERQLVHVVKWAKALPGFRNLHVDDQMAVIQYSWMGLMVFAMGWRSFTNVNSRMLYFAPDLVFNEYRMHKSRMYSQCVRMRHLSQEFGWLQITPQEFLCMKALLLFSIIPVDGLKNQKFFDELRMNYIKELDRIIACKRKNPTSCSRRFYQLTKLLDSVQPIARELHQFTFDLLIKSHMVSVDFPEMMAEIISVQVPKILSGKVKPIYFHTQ

[22] = biological target: Kappa-type opioid receptor (Homo sapiens) (UniProt P41145); assay: Displacement of [3H]diprenorphine from full-length recombinant human KOR expressed in HEK293 cells at 10 uM measured after 60 mins by scintillation counting method relative to control; type: cell-based
Kappa-type opioid receptor (Homo sapiens), sequence (P41145 whole entry): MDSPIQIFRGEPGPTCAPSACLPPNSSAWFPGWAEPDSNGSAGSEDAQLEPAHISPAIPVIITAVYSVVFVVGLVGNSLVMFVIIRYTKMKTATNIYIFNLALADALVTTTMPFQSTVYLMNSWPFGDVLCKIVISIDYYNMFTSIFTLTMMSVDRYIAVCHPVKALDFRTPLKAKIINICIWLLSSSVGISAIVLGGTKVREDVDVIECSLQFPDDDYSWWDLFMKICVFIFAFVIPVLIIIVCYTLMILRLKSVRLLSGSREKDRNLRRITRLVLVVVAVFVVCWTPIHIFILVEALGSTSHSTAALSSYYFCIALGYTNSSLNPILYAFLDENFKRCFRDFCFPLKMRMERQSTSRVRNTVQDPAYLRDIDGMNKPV

[23] = biological target: Tyrosine-protein kinase Lck (Homo sapiens) (UniProt P06239); assay: Inhibition of full-length recombinant human LCK expressed in insect cells at 10 uM using poly(Glu:Tyr) as substrate preincubated for 15 mins followed by substrate addition and measured after 30 mins in presence of [gamma32P]ATP by scintillation counting method relative to control
Tyrosine-protein kinase Lck (Homo sapiens), sequence (P06239 2-509 limits assumed): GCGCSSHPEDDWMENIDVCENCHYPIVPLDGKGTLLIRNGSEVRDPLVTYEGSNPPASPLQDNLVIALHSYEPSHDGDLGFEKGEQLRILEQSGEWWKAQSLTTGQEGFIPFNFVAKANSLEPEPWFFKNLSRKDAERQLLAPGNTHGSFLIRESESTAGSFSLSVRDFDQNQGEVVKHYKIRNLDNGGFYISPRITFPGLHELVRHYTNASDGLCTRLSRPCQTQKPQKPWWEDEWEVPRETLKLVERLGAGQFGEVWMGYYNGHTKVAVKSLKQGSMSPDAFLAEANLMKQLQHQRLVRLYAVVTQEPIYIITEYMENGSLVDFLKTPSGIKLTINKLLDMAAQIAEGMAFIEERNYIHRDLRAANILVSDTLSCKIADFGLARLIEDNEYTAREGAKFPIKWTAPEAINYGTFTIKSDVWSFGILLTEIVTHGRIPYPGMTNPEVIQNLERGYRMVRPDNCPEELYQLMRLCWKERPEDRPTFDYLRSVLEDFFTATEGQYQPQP

[24] = biological target: Muscarinic acetylcholine receptor M1 (Homo sapiens) (UniProt P11229); assay: Displacement of [3H]N-Methylscopolamine from full-length recombinant human M1 receptor expressed in CHOK1 cells at 10 uM measured after 120 mins by scintillation counting method relative to control; type: cell-based
[25] = biological target: 3',5'-cyclic-AMP phosphodiesterase 4D (Homo sapiens) (UniProt Q08499); assay: Inhibition of full-length recombinant human PDE4D2 expressed in Sf9 insect cells at 10 uM using FAM-cAMP as substrate preincubated for 15 mins followed by substrate addition and measured after 15 mins by spectrofluorimetric method relative to control
3',5'-cyclic-AMP phosphodiesterase 4D (Homo sapiens), sequence (Q08499 whole entry): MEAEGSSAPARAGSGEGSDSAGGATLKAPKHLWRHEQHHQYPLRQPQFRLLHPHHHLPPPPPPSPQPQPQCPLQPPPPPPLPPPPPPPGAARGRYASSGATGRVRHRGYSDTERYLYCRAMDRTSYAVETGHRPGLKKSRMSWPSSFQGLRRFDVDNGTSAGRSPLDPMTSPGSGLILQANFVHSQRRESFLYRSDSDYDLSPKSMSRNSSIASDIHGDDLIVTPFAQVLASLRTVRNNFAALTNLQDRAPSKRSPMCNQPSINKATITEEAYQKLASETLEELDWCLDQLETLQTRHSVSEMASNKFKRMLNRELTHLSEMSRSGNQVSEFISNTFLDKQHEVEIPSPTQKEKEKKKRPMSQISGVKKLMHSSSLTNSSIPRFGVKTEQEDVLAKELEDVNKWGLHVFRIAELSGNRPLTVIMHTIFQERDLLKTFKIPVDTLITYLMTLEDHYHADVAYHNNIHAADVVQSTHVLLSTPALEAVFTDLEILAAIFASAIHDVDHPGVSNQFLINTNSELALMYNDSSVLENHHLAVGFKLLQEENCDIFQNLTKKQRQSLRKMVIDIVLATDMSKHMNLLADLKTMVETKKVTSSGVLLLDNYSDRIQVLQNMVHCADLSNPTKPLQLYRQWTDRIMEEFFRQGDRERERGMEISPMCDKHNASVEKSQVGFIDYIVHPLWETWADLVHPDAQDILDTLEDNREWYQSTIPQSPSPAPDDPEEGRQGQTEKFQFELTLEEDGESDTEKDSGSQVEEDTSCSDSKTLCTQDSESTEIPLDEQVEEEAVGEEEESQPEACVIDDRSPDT

Compound | fraction unbound at 24 h, 1 µM [2] | fraction unbound at 24 h, 1 µM [3] | C0 [4] [nM] | half-life [5] [h] | AUC(0-inf) [6] [µM·h] | clearance [7] [mL/min/kg] | Vd [8] [L/kg] | Cmax [9] [nM] | Tmax [10] [h] | AUC(0-inf) [11] [µM·h] | bioavailability [12] [%] | IC50 [13] [µM] | IC50 [14] [µM] | IC50 [15] [µM] | GI50 (COLO 320DM [16]) [µM] | remaining at 0.5 h, 1 µM (in vitro [17]) [%] | remaining at 0.5 h, 1 µM (in vitro [18]) [%] | further results
COc1ccccc1N1CCN(c2nc3c(c(=O)[nH]2)CCCC3)CC1 | 0.043 | 0.029 | 1000 | 13 | 0.72 | 68 | 58.9 | 120 | 0.5 | 1.27 | 59.7 | 2.23 | 10.2 | 20 to 100 | 3.2 | 84.1 | 0 | Papp [1]: 0.34 ×10⁻⁶ cm/s; solubility at 1 h, 200 µM (physchem): 10 µg/mL (≈ 29.4 µM)
O=c1[nH]c(N2CCC3(CC2)CN(CCO)c2cc(F)cc(F)c23)nc2c1CCCC2 | 0.004 | 0.015 | 9840 | 3.5 | 4.42 | 9 | 0.59 | 2280 | 0.25 | 7.92 | 59.8 | 2.72 | 19.8 | 20 to 100 | 1.6 | 5.9 | 18.3 | Activity (Homo sapiens): inactive; inhibition in vivo at 300 mg/kg (COLO 320DM [19]): 51.9%; inhibition [20]: > 20%; inhibition [21]: > 20%; inhibition [22]: > 20%; inhibition [23]: > 20%; inhibition [24]: > 20%; inhibition [25]: > 20%
